Values belong to the molecule of their own block, whether it stands above or below them.
Experiment: solvent given as SMILES

SMILES: CCCCN1c2ccccc2Sc2cc(/C=C/C3=Nc4ccc5ccccc5c4C3(C)C)ccc21
absorption maximum (in C1CCCCC1): 414 nm
absorption maximum (in C1COCCO1): 417 nm
absorption maximum (in CCOC(C)=O): 416 nm
absorption maximum (in CCOCC): 414 nm
absorption maximum (in Cc1ccccc1): 423 nm

absorption maximum (in ClCCl): 641 nm
SMILES: COC(=O)/C=C/C=C/C1=[N+]2C(=C(c3c(C)cc(C)cc3C)c3ccc(/C=C/C=C/C(=O)OC)n3[B-]2(F)F)C=C1

absorption maximum (in ClCCl): 361 nm
SMILES: COc1ccc(N(c2ccc(OC)cc2)c2ccc(-c3ccc4nc5ccccc5c(=O)n4c3)cc2)cc1

absorption maximum (in ClCCl): 465 nm
SMILES: COc1ccc2c(c1)CCC1=C(C#Cc3cc4ccccc4c4ccccc34)O[B-](F)(F)[O+]=C12

absorption maximum (in ClCCl): 554 nm
SMILES: CC1=C(I)C(C)=[N+]2C1=C(c1c(-c3ccccn3)nc3ccccn13)c1c(C)c(I)c(C)n1[B-]2(F)F

SMILES: O=[N+]([O-])c1ccc(F)cc1C1CC(c2cccc3ccccc23)=NN1c1ccccc1 (stereo not given)
absorption maximum (in C1CCCCC1): 365 nm
absorption maximum (in C1CCOC1): 374 nm
absorption maximum (in C1COCCO1): 372 nm
absorption maximum (in CC#N): 367 nm
absorption maximum (in CC(C)O): 370 nm
absorption maximum (in CCOC(C)=O): 371 nm
absorption maximum (in CCOCC): 363 nm
absorption maximum (in CO): 372 nm
absorption maximum (in Cc1ccccc1): 368 nm
absorption maximum (in ClC(Cl)Cl): 363 nm
absorption maximum (in O): 375 nm

SMILES: COc1cc(N(c2ccccc2)c2ccccc2)ccc1C=C(C#N)C#N
absorption maximum (in C1COCCO1): 436 nm
absorption maximum (in CC#N): 440 nm
absorption maximum (in CC(C)=O): 440 nm
absorption maximum (in CCOC(C)=O): 439 nm
absorption maximum (in CN(C)C=O): 445 nm
absorption maximum (in CO): 442 nm
absorption maximum (in Cc1ccccc1): 443 nm
absorption maximum (in ClC(Cl)Cl): 449 nm
absorption maximum (in ClCCl): 446 nm

absorption maximum (in CCO): 595 nm
absorption maximum (in ClC(Cl)Cl): 601 nm
absorption maximum (in O): 596 nm
SMILES: CCOC(=O)c1ccccc1-c1c2ccc(=[N+](CC)CC)cc-2oc2c1c(=O)oc1cc(N(CC)CC)ccc12

absorption maximum (in CCO): 514 nm
SMILES: Nc1ccc2c(-c3ccc(Br)cc3)c3ccc(=[NH2+])cc-3oc2c1

absorption maximum (in C1CCCCC1): 391 nm
SMILES: COc1ccc2c3c(c4ccc(OC)cc4c2c1)C(C)(C)c1sccc1-3

absorption maximum (in ClCCl): 436 nm
SMILES: CCCCCCCCCCCCN1C(=O)c2c(c3ccc4cc(-c5ccc(C)cc5)c(OC)cc4c3c3c2ccc2cc(-c4ccc(C)cc4)c(OC)cc23)C1=O

absorption maximum (in CC#N): 524 nm
absorption maximum (in CCCCCC): 534 nm
absorption maximum (in CCOC(C)=O): 527 nm
absorption maximum (in CO): 525 nm
absorption maximum (in ClCCl): 531 nm
SMILES: CCc1c(C)c2n(c1C)[B-](F)(F)[N+]1=C(NCc3ccc(OC)cc3)C=CC1=C2C

absorption maximum (in CC#N): 343 nm
absorption maximum (in ClCCl): 358 nm
SMILES: O=c1c2cc(Br)ccc2nc2n1[B-](F)(F)[n+]1ccccc1-2

SMILES: c1ccc(N2c3ccc4ccccc4c3-c3c4ccccc4nc[n+]3[B-]2(c2ccccc2)c2ccccc2)cc1
absorption maximum (in C1CCC2CCCCC2C1): 542 nm
absorption maximum (in C1CCCCC1): 539 nm
absorption maximum (in C1CCOC1): 535 nm
absorption maximum (in CC#N): 527 nm
absorption maximum (in CC(C)=O): 530 nm
absorption maximum (in CCCCCC): 537 nm
absorption maximum (in CCOC(C)=O): 532 nm
absorption maximum (in CN(C)C=O): 532 nm
absorption maximum (in Cc1ccccc1): 539 nm
absorption maximum (in ClC(Cl)Cl): 541 nm

absorption maximum (in ClCCl): 507 nm
SMILES: c1ccc(C2=C(c3ccccc3)c3cccc4c3c(cc3nc5cc(-c6ccccc6)c(-c6ccccc6)cc5nc34)O2)cc1

absorption maximum (in ClCCl): 323 nm
SMILES: c1ccc(-n2nc(-c3ccc(-c4ccc5c(c4)C(c4ccccc4)(c4ccccc4)c4ccccc4-5)cc3)nc2-c2ccccn2)cc1

absorption maximum (in ClC(Cl)Cl): 336 nm
absorption maximum (in ClCCl): 337 nm
SMILES: COc1cc2cc(OC)c(-c3ccc([N+](=O)[O-])cc3)cc2cc1-c1ccc([N+](=O)[O-])cc1

absorption maximum (in ClCCl): 640 nm
SMILES: CC1=[N+]2C(=Cc3c4c(cn3[B-]2(F)F)-c2nc-4c(-c3ccccc3)c3ccc([nH]3)c(-c3ccccc3)c3nc(c(-c4ccccc4)c4ccc([nH]4)c2-c2ccccc2)C=C3)C(C)C1 (stereo not given)

absorption maximum (in ClCCl): 633 nm
SMILES: COC(=O)/C=C/C=C/C1=CC2=C(c3c(C)cc(C)cc3C)c3cc(/C=C/C=C/C(=O)OC)cn3[B-](F)(F)[N+]2=C1

SMILES: CCCCN1C(=O)C(=CC=C2N(CCCC)c3ccccc3N2CCCC)C(=O)N(CCCC)C1=S
absorption maximum (in CCCCCC): 470 nm
absorption maximum (in CCO): 424 nm
absorption maximum (in CN(C)C=O): 431 nm
absorption maximum (in Cc1ccccc1): 468 nm
absorption maximum (in ClC(Cl)Cl): 461 nm
absorption maximum (in ClCCl): 456 nm

absorption maximum (in ClC(Cl)Cl): 390 nm
SMILES: CCCCCCN1C(=O)c2cccc3c(-c4scc5c4OCCO5)ccc(c23)C1=O

absorption maximum (in C1CCOC1): 361 nm
absorption maximum (in ClC(Cl)Cl): 362 nm
absorption maximum (in ClCCl): 360 nm
SMILES: COc1cc2cc(OC)c(C#Cc3ccc([N+](=O)[O-])cc3)cc2cc1C#Cc1ccc([N+](=O)[O-])cc1

SMILES: N#Cc1nc2c3ccc(-c4ccc(N(c5ccccc5)c5ccccc5)cc4)cc3c3cc(-c4ccc(N(c5ccccc5)c5ccccc5)cc4)ccc3c2nc1C#N
absorption maximum (in Cc1ccccc1): 460 nm

SMILES: COc1ccc2c(c1)c1cc(OC)ccc1n2-c1cccc(-n2c3ccc(OC)cc3c3cc(OC)ccc32)c1C#N
absorption maximum (in Cc1ccccc1): 391 nm

absorption maximum (in O): 621 nm
SMILES: CN(C)c1ccc2[c](c1)[Ge]([CH3])([CH3])[C]1=CC(=[N+](C)C)C=CC1=C2

SMILES: CC(C)(C)c1ccc2c3c(c4ccc(C(C)(C)C)cc4c2c1)=[N+]1C(=C(c2ccccc2)c2c(Br)c4c5ccc(C(C)(C)C)cc5c5cc(C(C)(C)C)ccc5c4n2[B-]1(F)F)C=3Br
absorption maximum (in C1CCCCC1): 689 nm
absorption maximum (in C1CCOC1): 686 nm
absorption maximum (in CC#N): 682 nm
absorption maximum (in Cc1ccccc1): 691 nm
absorption maximum (in ClCCl): 689 nm

absorption maximum (in O): 328 nm
SMILES: [NH3+]c1ccc2ccc(O)cc2c1

absorption maximum (in C1CCCCC1): 374 nm
absorption maximum (in CC#N): 364 nm
absorption maximum (in CO): 354 nm
absorption maximum (in ClCCl): 367 nm
absorption maximum (in O): 338 nm
SMILES: Cc1nc(-c2ccccc2)c2ccccn12

absorption maximum (in ClCCl): 343 nm
SMILES: ClP1(Cl)=N[P@](Cl)(Oc2ccc3ccc4cccc5ccc2c3c45)=N[P@@](Cl)(Oc2ccc3ccc4cccc5ccc2c3c45)=N1

absorption maximum (in ClCCl): 373 nm
SMILES: COc1c(C(C)=O)c(=O)oc2cc(N(C)C)ccc12

absorption maximum (in CCCCCC): 445 nm
absorption maximum (in CO): 461 nm
SMILES: O=C1C=C(Nc2ccc(F)cc2)C(=O)c2ccccc21

absorption maximum (in ClCCl): 427 nm
SMILES: C(=C\c1cc(/C=C/c2ccc(N(c3ccccc3)c3ccccc3)cc2)ncn1)/c1ccc(N(c2ccccc2)c2ccccc2)cc1

absorption maximum (in CC#N): 390 nm
absorption maximum (in CO): 393 nm
absorption maximum (in ClCCl): 395 nm
SMILES: O=C1c2ccccc2-c2c(-c3cc(Cl)ccc3O)[nH]c(=O)n21

SMILES: CCN1c2ccc(/C=N/Nc3ccccn3)cc2Sc2cc(-c3ccc(OC)cc3)ccc21
absorption maximum (in C1CCOC1): 381 nm
absorption maximum (in CS(C)=O): 386 nm
absorption maximum (in Cc1ccccc1): 380 nm
absorption maximum (in ClCCl): 383 nm

SMILES: c1ccc(-c2nc(-c3ccccc3)nc(-c3ccc(N4c5ccccc5C5(c6ccccc6-c6ccccc65)c5ccccc54)cc3)n2)cc1
absorption maximum (in Cc1ccccc1): 399.05 nm

absorption maximum (in C1CCOC1): 341 nm
SMILES: c1ccc(-c2ccc(-c3ccccc3)s2)cc1

absorption maximum (in C1CCCCC1): 604.5 nm
absorption maximum (in CCOC(C)=O): 604.5 nm
SMILES: CC1=[N+]2C(=C(c3ccc(C=O)cc3)c3ccc(C)n3[B-]2(F)F)C=C1c1cc2n(c1)[B-](F)(F)[N+]1=CC=CC1=C2c1c(C)cc(C)cc1C

absorption maximum (in ClCCl): 403 nm
SMILES: CCCCCCN1C(=O)c2cccc3c(-c4ccc(-c5cc(-c6ccc(OC)cc6)n(-c6ccccc6)n5)s4)ccc(c23)C1=O

SMILES: CC(C)=O
absorption maximum (in CCCCCC): 279 nm

absorption maximum (in CCO): 358 nm
SMILES: CN(C)c1cc(F)c(C(=O)c2cc(F)c(N(C)C)cc2F)cc1F

absorption maximum (in ClCCl): 346 nm
SMILES: C[Si]1(C)c2ccc(C#Cc3ccccc3)cc2C=Cc2cc(C#Cc3ccccc3)ccc21

absorption maximum (in C1CCCCC1): 546 nm
SMILES: C(#Cc1cccc2cc(-c3ccccc3)c3cc(-c4cc[b-]5c(c4)c(-c4ccccc4)cc4cccc(C#Cc6ccccc6)[n+]54)cc[b-]3[n+]12)c1ccccc1

SMILES: COc1cc2c(cc1/C=C(\C#N)c1nc3ccccc3s1)c1ccccc1n2C
absorption maximum (in C1CCOC1): 433 nm
absorption maximum (in CC#N): 431 nm
absorption maximum (in CCOC(C)=O): 430 nm
absorption maximum (in CN(C)C=O): 439 nm
absorption maximum (in CO): 437 nm
absorption maximum (in CS(C)=O): 443 nm
absorption maximum (in Cc1ccccc1): 431 nm
absorption maximum (in ClC(Cl)Cl): 434 nm
absorption maximum (in ClCCl): 435 nm

SMILES: C(#Cc1ccc2ncsc2c1)c1ccc(N(c2ccc(C#Cc3ccc4ncsc4c3)cc2)c2ccc(C#Cc3ccc4ncsc4c3)cc2)cc1
absorption maximum (in Cc1ccccc1): 380 nm

absorption maximum (in ClCCl): 436 nm
SMILES: N#CC(C#N)=Cc1ccc2c(c1)[nH]c1c3ccccc3ccc21

SMILES: CCn1c2ccccc2c2cc(-c3cc(-c4ccc5c(c4)c4ccccc4n5CC)nc(N4CCCCC4)n3)ccc21
absorption maximum (in C1CCOC1): 367 nm
absorption maximum (in CCOC(C)=O): 368 nm
absorption maximum (in CN(C)C=O): 370 nm
absorption maximum (in Cc1ccccc1): 369 nm
absorption maximum (in ClCCl): 371 nm

absorption maximum (in C1CCOC1): 360 nm
absorption maximum (in CC#N): 356 nm
absorption maximum (in CCOC(C)=O): 362 nm
absorption maximum (in CS(C)=O): 355 nm
absorption maximum (in ClC(Cl)Cl): 364 nm
SMILES: N#Cc1cc2ccc(O)cc2oc1=N

absorption maximum (in CC#N): 415 nm
absorption maximum (in O): 422 nm
SMILES: Nc1nc2ccc(F)cc2[n+]([O-])n1

absorption maximum (in ClC(Cl)Cl): 429 nm
SMILES: Cc1cccc(C2=Cc3ccc4ccccc4[n+]3[B-](F)(F)O2)c1

absorption maximum (in ClC(Cl)Cl): 337 nm
SMILES: CCCCc1cc(-c2cccc(COC)c2)oc1-c1cccc(-c2cc(CCCC)c(-c3cccc(-c4cc(CCCC)c(-c5cccc(-c6oc(-c7cccc(-c8oc(-c9cccc(-c%10oc(-c%11cccc(COC)c%11)cc%10CCCC)c9)cc8CCCC)c7)cc6CCCC)c5)o4)c3)o2)c1

SMILES: F[B-]1(F)OC(c2ccccc2)=CC(c2ccccc2)=[O+]1
absorption maximum (in CC#N): 376 nm
absorption maximum (in ClC(Cl)(Cl)Cl): 375 nm

absorption maximum (in ClC(Cl)Cl): 723 nm
SMILES: COc1ccc(-c2cc3c(o2)=CC2=C(C(F)(F)F)c4cc5oc(-c6ccc(OC)cc6)cc5n4[B-](F)(F)[N+]=32)cc1

absorption maximum (in ClCCl): 532 nm
SMILES: F[B-]1(F)n2c(Cl)c(Cl)c(Br)c2C(Oc2ccccc2)=C2C(Br)=C(Cl)C(Cl)=[N+]21

absorption maximum (in CC#N): 255 nm
SMILES: Cc1cn(C(F)(F)F)c(=O)[nH]c1=O

absorption maximum (in CC#N): 394 nm
absorption maximum (in ClCCl): 394 nm
SMILES: COC(=O)c1cc(=O)n(C)c2cc(-c3cccc(OC)c3)sc12
